Reference: patent publication US4661491A, “Alfuzosine compositions and use” (Synthelabo, priority 1985, dated 1987)

Assays:
[1] = biological target: T1, α-adrenergic receptors (Oryctolagus cuniculus, UniProt O02824); assay: Phenylephrine-induced contraction of rabbit trigone muscle and urethra preparations; assay type: biochemical
T1 construct: The bladder and urethra are rapidly removed and placed in lukewarm Krebs solution; from tissue; host or cells: rabbit bladder trigone muscle and urethra ring, isolated organ
T1 sequence (O02824 1-466): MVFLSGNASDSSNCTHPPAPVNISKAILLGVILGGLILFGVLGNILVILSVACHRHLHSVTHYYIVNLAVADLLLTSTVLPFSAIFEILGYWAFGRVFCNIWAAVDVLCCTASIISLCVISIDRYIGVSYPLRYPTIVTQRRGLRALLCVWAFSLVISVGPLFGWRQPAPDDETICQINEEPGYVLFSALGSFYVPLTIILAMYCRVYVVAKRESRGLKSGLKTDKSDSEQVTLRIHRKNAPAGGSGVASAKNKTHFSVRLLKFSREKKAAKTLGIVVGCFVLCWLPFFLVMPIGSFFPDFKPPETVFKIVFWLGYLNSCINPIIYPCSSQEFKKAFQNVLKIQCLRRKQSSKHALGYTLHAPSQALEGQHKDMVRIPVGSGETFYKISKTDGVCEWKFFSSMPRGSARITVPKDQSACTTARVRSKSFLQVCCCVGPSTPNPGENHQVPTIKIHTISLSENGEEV
Procedure: Male rabbits (CEGAN) weighing 3 to 4 kg are sacrificed by exsanguination and cervical dislocation.
The bladder and urethra are rapidly removed and placed in lukewarm Krebs solution containing bicarbonate.
The composition of this Krebs medium is as follows, in mM: NaCl 114; KCl 4.7; CaCl2 2.5; KH2 PO4 1.2; MgSO4 1.2; NaHCO3 25.0; glucose 11.7; ascorbic acid 1.1. Propranolol (1.0 μM) is added into the Krebs medium to block the β-adrenergic receptors.
The bladder is opened transversely and the "trigone" region of the muscle, located on the dorsal surface of the bladder and between the two ureters, is dissected out.
A 5 mm ring of urethra, from the region situated between the base of the bladder and the prostate, is also prepared.
The portions of trigone muscle and urethra are washed under a tension of 1 g in Krebs medium.
The contraction-response curve to cumulated concentrations of phenylephrine is determined.
Additions of the agonist are performed every 5 min. The tissues are washed until the original tension is reestablished, and are then incubated for 30 min with alfuzosine. A second response curve to phenylephrine is determined in the presence of alfuzosine.
The response curves to concentrations of phenylephrine in the presence or absence of alfuzosine are expressed as a percentage of the maximum response obtained relative to the control curve.
The power of alfuzosine is calculated in the form of pA2 by Schild's method, where pA2 =negative logarithm of the molar concentration of alfuzosine which causes a rightward shift of the response curve to the agonist.

[2] = Clinical study, sphincterometric measurements in patients with dysuria of neurological origin with urethral hypertonia; assay type: in vivo, human; settings: 5 mg i.v. over 20 min; p<0.001
Procedure: By means of clinical studies, it has also been possible to show the efficacy of alfuzosine in patients suffering from dysuria of neurological origin with urethral hypertonia.
5 mg of alfuzosine are injected intravenously continuously for a period of 20 min. Sphincterometric measurements were made using an electronic micro-sensor, before and after the injection of the drug, at the bladder neck and at the striated sphincter of the posterior urethra.

[3] = Clinical study in paraplegics, micturition test; assay type: in vivo, human
Procedure: A clinical study was also performed in paraplegics.
The paraplegic, or spinal man, gives rise to an experimental model of the peripheral receptors, since he embodies a disconnection from the influence of the higher, diencephalic and cortical nerve centres.
Given the localization of the alpha-adrenergic receptors in the posterior urethra and the vesico-urethral segment or neck, alpha-adrenergic hypertonia is the source of dysuria and disturbances of micturition. The opening of the neck and the fall in the pressure gradient in the posterior urethra are the two conditions required for the production of effective micturition.
Alfuzosine was administered intravenously, and then orally if the first test is positive. 5 mg of alfuzosine are injected intravenously in the course of 20 min.
The test is considered to be positive if an initiation of micturition, that is to say, necessarily, opening of the neck, takes place.
For patients for whom the test is positive, the administration of alfuzosine was then performed orally at the rate of 9 mg/24 h/28 d.

Which “shift of the response curve to phenylephrine” value ([1]; alfuzosine 3.0 μM, 30 min incubation, trigone muscle and urethra) does the source give for `COc1cc2nc(N(C)CCCNC(=O)C3CCCO3)nc(N)c2cc1OC` (stereo not shown) [Alfuzosine] here?
Its value is “significant rightward parallel shift”.

What about the Kb ([1]; antagonism of phenylephrine contraction, read-out: pA2 (Schild analysis) (converted)) of the same compound?
Its Kb is 89.1 nM.

What about the “reduction in the maximum contractile effects of phenylephrine” value ([1]; trigone muscle and urethra, 30 min) of the same compound?
The value was 20 to 30%.

And the “pressure decrease at the bladder neck” value [2]?
The value was 44%.

What about the “pressure decrease at the striated sphincter” value [2] of the same compound?
Its value is 39%.

What about the “initiation of micturition under oral treatment” value ([3]; paraplegics positive in i.v. test, per os 9 mg/24 h/28 d) of the same compound?
Its value is “enabled micturition to be rendered easier to initiate”.

What about the “intra-urethral pressures after injection” value ([3]; paraplegics, 5 mg i.v. in 20 min) of the same compound?
The value was “decrease significantly”.
